Test results as given in PubChem BioAssay AID2060509 (Molecular Pharmacology Branch, DTP, NCI, 2025).

Tested on: 485176-168-R4-J1-PDC spheroids with HUVEC/MSC, viability
Assay: Anticancer human tumor 485176-168-R4-J1-PDC patient-derived pancreatic adenocarcinoma cell line growth inhibition [GQUAD]
Settings: for IC50: curve of first compound; for viability, T/C: stronger effect = lower value
Source text: DNA G-quadruplex Stabilizer Agents in Combinations in Complex Spheroids
A high-throughput screen of multi-cell type tumor spheroids was designed to identify active combinations of DNA G-quadruplex stabilizer agents and targeted small molecules. Complex spheroids include a stromal component modeled by human endothelial cells (HUVEC) and fibroblasts modeled by human mesenchymal stem cells (MSCs). The concentration ranges selected for each drug and investigational agent were based upon clinically achievable concentrations if the clinical Cmax of the agent was known.
Compounds. The drugs and investigational agents: pidnarulex (CX-5461; NSC782164), APTO-253 (NSC789042), BRACO-19 (NSC847499), peposertib (NSC802822), ceralasertib (NSC780249), elimusertib (NSC800525), camonsertib (NSC841442), AZD-1390 (NSC803789), olaparib (NSC753686), talazoparib (NSC767125), ART-558 (NSC835418), sotorasib (NSC818433), MRTX-1133 (NSC836407), SN-38 (NSC673596), topotecan (NSC609699), etoposide (NSC141540), doxorubicin (NSC123127), gemcitabine (NSC613327), 5-fluorouracil (NSC19893), paclitaxel (NSC125973), vemurafenib (NSC761431), panobinostat (NSC761190), R-306465 (JNJ-16241199; NSC773264), adavosertib (NSC754352), TP-3654 (NSC805149), carboplatin (NSC241240), KSQ-4279 (NSC840948), and staurosporine (NSC755774) were obtained from the National Cancer Institute (NCI) Developmental Therapeutics Program Chemical Repository (34). The FDA-approved anticancer drug set is available from the NCI Developmental Therapeutics Program. […] The stock solutions were prepared in dimethyl sulfoxide (DMSO, Sigma-Aldrich, St. Louis, MO, cat. D2650) at 800-fold the tested concentration and stored at -70 degrees C prior to their use. All drugs and investigational agents were tested over a range starting from a high concentration at or near the clinical Cmax and decreasing in half-log increments. If the clinical Cmax for an agent had not been determined, the highest concentration tested was 10 microM.
2.3 Cell Culture. All cells were maintained in an incubator at 37 degrees C and 5% CO2 with 95% humidity. The PDC lines were cultured according to standard operating procedures established by the NCI PDMR. All PDCs were thawed and cultured in Matrigel-coated flasks prepared with a working solution of 1X Ham's F-12 nutrient mix, without supplementation (Invitrogen, cat. 11765054), 100 U/mL penicillin-streptomycin (Invitrogen, cat. 15140122), and 2.5% Matrigel (Corning Inc., cat. 354248) for the first three passages. The 857933-349-R-J2-PDC line was cultured in 6C/Colon 1B media, which includes advanced DMEM/F-12 (Thermo Fisher Scientific, cat. 12634028), 10 mM HEPES (Thermo Fisher Scientific, cat. 15630080), 1X GlutaMAX supplement (Thermo Fisher Scientific, cat. 35050061), 0.1 mg/mL primocin (InvivoGen, cat. ant-pm-2), 10% defined fetal bovine serum, heat inactivated (HyClone Laboratories Inc., cat. SH30070.03HI), 50% L-WRN conditioned media (ATCC, cat. CRL-3276), 1.25 mM N-Acetyl-L-cysteine (Sigma-Aldrich, cat. A9165), 10 mM nicotinamide (Sigma-Aldrich, cat. N0636), 1X B-27 supplement (Thermo Fisher Scientific, cat. 17504044), 1X N-2 supplement (Thermo Fisher Scientific, cat. 17502048), 10 microM Y-27632 dihydrochloride (Tocris Bioscience, cat. 1254), and 50 ng/mL human EGF recombinant protein (Thermo Fisher Scientific, cat. PHG0311). The 485176-168-R4-J1-PDC line was cultured in Panc media, which includes all 6C/Colon 1B media components plus 100 ng/mL human FGF-10 (Thermo Fisher Scientific, cat. 100-26), 500 nM SB-431542 (Selleckchem, cat. S1067), and gastrin (Tocris, cat. 3006).
[…]

[1] = second compound 0.0316 µM, first compound 0.0316 µM
[2] = second compound 0.0316 µM, first compound 0.1 µM
[3] = second compound 0.0316 µM, first compound 0.316 µM
[4] = second compound 0.0316 µM, first compound 1 µM
[5] = second compound 0.0316 µM, first compound 3.16 µM
[6] = second compound 0.0316 µM, first compound 10 µM
[7] = second compound 0.1 µM, first compound 0.0316 µM
[8] = second compound 0.1 µM, first compound 0.1 µM
[9] = second compound 0.1 µM, first compound 0.316 µM
[10] = second compound 0.1 µM, first compound 1 µM
[11] = second compound 0.1 µM, first compound 3.16 µM
[12] = second compound 0.1 µM, first compound 10 µM
[13] = second compound 0.316 µM, first compound 0.0316 µM
[14] = second compound 0.316 µM, first compound 0.1 µM
[15] = second compound 0.316 µM, first compound 0.316 µM
[16] = second compound 0.316 µM, first compound 1 µM
[17] = second compound 0.316 µM, first compound 3.16 µM
[18] = second compound 0.316 µM, first compound 10 µM
[19] = second compound 1 µM, first compound 0.0316 µM
[20] = second compound 1 µM, first compound 0.1 µM
[21] = second compound 1 µM, first compound 0.316 µM
[22] = second compound 1 µM, first compound 1 µM
[23] = second compound 1 µM, first compound 3.16 µM
[24] = second compound 1 µM, first compound 10 µM
[25] = second compound 3.16 µM, first compound 0.0316 µM
[26] = second compound 3.16 µM, first compound 0.1 µM
[27] = second compound 3.16 µM, first compound 0.316 µM
[28] = second compound 3.16 µM, first compound 1 µM
[29] = second compound 3.16 µM, first compound 3.16 µM
[30] = second compound 3.16 µM, first compound 10 µM
[31] = second compound 10 µM, first compound 0.0316 µM
[32] = second compound 10 µM, first compound 0.1 µM
[33] = second compound 10 µM, first compound 0.316 µM
[34] = second compound 10 µM, first compound 1 µM
[35] = second compound 10 µM, first compound 3.16 µM
[36] = second compound 10 µM, first compound 10 µM
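Further: spheroids exposed to compounds for seven days before readout.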
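Wherever viability, T/C is given: percent viability relative to DMSO vehicle control wells as 100%.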

CC1COCCN1c1cc(C2(O)CC3CCC(C2)O3)c2cnn(-c3ccn[nH]3)c2n1 (stereo unspecified) + CN(C)c1ccc(Nc2c3ccc(NC(=O)CCN4CCCC4)cc3nc3cc(NC(=O)CCN4CCCC4)ccc23)cc1
IC50 (second compound 0.0316 µM): 101 nM | IC50 (second compound 0.1 µM): 120 nM | IC50 (second compound 0.316 µM): 98.5 nM | IC50 (second compound 1 µM): 91 nM | IC50 (second compound 3.16 µM): 125 nM | IC50 (second compound 10 µM): 99.6 nM | viability, T/C [1]: 79.4% | viability, T/C [2]: 49.7% | viability, T/C [3]: 25.9% | viability, T/C [4]: 9.43% | viability, T/C [5]: 12% | viability, T/C [6]: 7.83% | viability, T/C [7]: 66% | viability, T/C [8]: 56.1% | viability, T/C [9]: 16.4% | viability, T/C [10]: 9.58% | viability, T/C [11]: 11.2% | viability, T/C [12]: 8.08% | viability, T/C [13]: 70.3% | viability, T/C [14]: 49.6% | viability, T/C [15]: 23% | viability, T/C [16]: 10.9% | viability, T/C [17]: 9.72% | viability, T/C [18]: 8.92% | viability, T/C [19]: 80.3% | viability, T/C [20]: 47.1% | viability, T/C [21]: 21.6% | viability, T/C [22]: 9.7% | viability, T/C [23]: 10.3% | viability, T/C [24]: 8.64% | viability, T/C [25]: 72.2% | viability, T/C [26]: 54.2% | viability, T/C [27]: 30% | viability, T/C [28]: 10.4% | viability, T/C [29]: 11.8% | viability, T/C [30]: 7.71% | viability, T/C [31]: 67.1% | viability, T/C [32]: 50.2% | viability, T/C [33]: 21.1% | viability, T/C [34]: 11.6% | viability, T/C [35]: 9.48% | viability, T/C [36]: 6.52%

CC1COCCN1c1cc(C2(S(C)(=N)=O)CC2)nc(-c2ccnc3[nH]ccc23)n1 (stereo unspecified) + CN(C)c1ccc(Nc2c3ccc(NC(=O)CCN4CCCC4)cc3nc3cc(NC(=O)CCN4CCCC4)ccc23)cc1
IC50 (second compound 0.0316 µM): 2210 nM | IC50 (second compound 0.1 µM): 1870 nM | IC50 (second compound 0.316 µM): 2110 nM | IC50 (second compound 1 µM): 2070 nM | IC50 (second compound 3.16 µM): 1990 nM | IC50 (second compound 10 µM): 1490 nM | viability, T/C [1]: 92.4% | viability, T/C [2]: 85.2% | viability, T/C [3]: 86.2% | viability, T/C [4]: 75% | viability, T/C [5]: 38.7% | viability, T/C [6]: 15.9% | viability, T/C [7]: 100% | viability, T/C [8]: 81.9% | viability, T/C [9]: 84.6% | viability, T/C [10]: 69.9% | viability, T/C [11]: 33.6% | viability, T/C [12]: 17.6% | viability, T/C [13]: 103% | viability, T/C [14]: 101% | viability, T/C [15]: 97.8% | viability, T/C [16]: 76.3% | viability, T/C [17]: 35.7% | viability, T/C [18]: 15.6% | viability, T/C [19]: 115% | viability, T/C [20]: 85.6% | viability, T/C [21]: 109% | viability, T/C [22]: 70.2% | viability, T/C [23]: 38.5% | viability, T/C [24]: 18% | viability, T/C [25]: 90.8% | viability, T/C [26]: 99.2% | viability, T/C [27]: 97.5% | viability, T/C [28]: 69.1% | viability, T/C [29]: 37.1% | viability, T/C [30]: 15.8% | viability, T/C [31]: 88.2% | viability, T/C [32]: 100% | viability, T/C [33]: 81.2% | viability, T/C [34]: 59.5% | viability, T/C [35]: 32.8% | viability, T/C [36]: 20.3%

COc1ccc([C@@H](O)c2cc(-c3ncnc4cc(N5CCOCC5)ccc34)c(F)cc2Cl)nn1 + CN(C)c1ccc(Nc2c3ccc(NC(=O)CCN4CCCC4)cc3nc3cc(NC(=O)CCN4CCCC4)ccc23)cc1
IC50 (second compound 0.0316 µM): 5710 nM | IC50 (second compound 0.1 µM): 4750 nM | IC50 (second compound 0.316 µM): 4760 nM | IC50 (second compound 1 µM): 4580 nM | IC50 (second compound 3.16 µM): 4120 nM | IC50 (second compound 10 µM): 3130 nM | viability, T/C [1]: 97.4% | viability, T/C [2]: 96.6% | viability, T/C [3]: 96.1% | viability, T/C [4]: 82.3% | viability, T/C [5]: 70.9% | viability, T/C [6]: 31.4% | viability, T/C [7]: 97.6% | viability, T/C [8]: 98.4% | viability, T/C [9]: 89.1% | viability, T/C [10]: 80.5% | viability, T/C [11]: 60.6% | viability, T/C [12]: 30.7% | viability, T/C [13]: 87% | viability, T/C [14]: 92.2% | viability, T/C [15]: 109% | viability, T/C [16]: 75.6% | viability, T/C [17]: 62.9% | viability, T/C [18]: 30.6% | viability, T/C [19]: 106% | viability, T/C [20]: 91.8% | viability, T/C [21]: 100% | viability, T/C [22]: 84.1% | viability, T/C [23]: 60.9% | viability, T/C [24]: 27.1% | viability, T/C [25]: 108% | viability, T/C [26]: 107% | viability, T/C [27]: 81.4% | viability, T/C [28]: 74.9% | viability, T/C [29]: 57.9% | viability, T/C [30]: 31.8% | viability, T/C [31]: 77.6% | viability, T/C [32]: 87.5% | viability, T/C [33]: 73.7% | viability, T/C [34]: 61.9% | viability, T/C [35]: 52.4% | viability, T/C [36]: 23.8%
